Reference: patent publication US20260265055A1, “Sulfine-Based Compounds for Generating Hydrogen Persulfide” (Brown University, priority 2023, published 2026)

Assay: Monitoring H2S2 formation from the TTS-TAGDD hybrid compound 3 (SSP4, 12 h)
Conditions: 25 μM compound only, over 12 hours
Protocol: Monitoring H2S2 formation from the TTS-TAGDD hybrid compound 3: TTS and 3 were prepared as 1 mM solutions in DMSO. L-cysteine and Na2S2 were prepared at 4 mM and 1 mM in MilliQ H2O, respectively. SSP4 was dissolved in DMSO to obtain a 200 μM stock solution. CTAB was dissolved in ethanol to yield a 2 mM stock solution. 50 mM PBS buffer (pH 7.4) was added to individual wells of a black polystyrene, flat-bottomed clear 96-well plate, followed by TTS (25 μM) or 3 (25 μM) then cysteine (100 μM) or Na2S2 (25 μM). Samples were mixed by pipetting up and down and incubated in the dark at room temperature (rt) for 30 min. Next, CTAB (50 μM) was added to all wells followed by SSP4 (5 μM), and samples were mixed by pipetting up and down. Samples were then incubated in the dark at room temperature for another 30 min before being measured on a Molecular Devices SpectraMax iD3 Multi-Mode Microplate Reader (fluorescence mode; kinetics measurement type; emission 535 nm; excitation 485 nm; integration time […], low PMT sensitivity, attenuation 1, read height 1.00 mm; total run time: 12 hours; 25 cycles; interval: 0.5 hours). Data was graphed as a time dependent fluorescence response, with F0 as the SSP4 only condition. The fluorescence of Na2S2 over time was not represented in the line graph presented due to the compound's known instability. Data obtained from the 12 h time point including from Na2S2 was also represented in a bar graph for greater clarity. Results were expressed as mean±SEM (n=3).

For COC(=O)c1ccc(=S=O)sc1 [TTS, 2H-thiopyran-2-thione sulfine], the SSP4 fluorescence was “did not give any notable fluorescence”.
